What was measured:
[1] = tested on: c-MYC expression in L363 cells; assay: Inhibition of c-MYC expression in L363 cells (Peggy); assay type: cell-based, human; details: Homo sapiens, L-363, L363 cells, at 10 μM; read-out: Peggy (% c-Myc expression compared to untreated)
Excerpt: FIG. 10 illustrates an exemplary procedure for generating analogs of Compound 1. The amine group of Compound 1 can be varied in reductive aminations to provide additional analogs. […] The table also provides an indication of an exemplary commercial source for the compounds, or (if applicable) an indication that the compound is new.

[2] = tested on: MYC expression in L363 cells; assay: Gene expression analysis (Nanostring, qPCR), MYC; assay type: cell-based, human; details: for c-Myc expression (qPCR): L363 cells
Experimental: (§1) Gene expression analysis was performed on a panel of 770 cancer-associated genes in a multiplexed (nanostring) transcriptional assay. In addition to c-MYC itself, several c-Myc target genes were included in the panel, as were a number of other quadruplex-driven genes. […] Additionally, a third data set was collected comparing Compound 1 treatment to JQ-1 (a BET-bromodomain inhibitor) and quarfloxin (another quadruplex-binding small molecule).
(§2) The effects of Compound 1 on a number of known quadruplex-driven genes in the panel were examined further (FIG. 6). Expression levels of MYC, RB1, VEGFA, KRAS, and HIF1α, all of which are reported to be under the control of promoter G4s, and are expressed in L363 cells, were included in the panel of genes evaluated by Nanostring as discussed above. […] These changes in gene expression are in line with biophysical measurements of compound affinity. Corresponding data showing similar results is presented for Compounds 1 and 23 in FIGS. 14A and 14B. […] These observations further highlight the ability of Compound 1 and Compound 23 to specifically target the expression of c-Myc and related pathways.
(§3) The phenotype for c-MYC genetic knockdown in multiple myeloma was achieved through lentiviral transduction of shRNA for c-MYC, derived from the spinoculation of 293T cells and plasmids grown in STBL3 E. coli, and isolated with the Qiagen Plasmid Midi Kit. Aliquots of the plasmids were generously provided by Art Shaffer. RNA of treated myeloma cells at designated time points was isolated with the Qiagen RNeasy kit, and used with the nCounter Human Cancer Reference Kit (NanoString Technologies), surveying changes in expression for […] cancer-related human genes and 6 reference genes. Quantitative changes in expression were analyzed and grouped in the form of a heat map using the programming language, R. All other quantitative statistical packing was performed in GraphPad Prism.

[3] = tested on: RB1, VEGFA, KRAS, HIF1α, BCL2 expression in L363 cells; assay: Gene expression analysis (Nanostring, qPCR), other G4-associated genes; assay type: cell-based, human; details: for expression of other G-quadruplex containing genes (qPCR): L363 cells
Experimental: as §1, §2, §3

786-0 = assay: NCI-60 cell growth (SRB); assay type: cell-based; details: 786-0, Renal Cancer; 10 μM, 48 hours
Experimental: (§4) This example illustrates that Compounds 1 and 23 can be used in inhibit the growth of c-Myc expressing cancer cell lines in vitro. The NCI-60 panel of cancer cell lines (see Shoemaker, Nat. Rev. Cancer, 6, 813-823, 2006, and dtp.cancer.gov/discovery_development/nci-60/) was assayed for cell growth in the presence of 10 μM Compound 1 or Compound 23 for 48 hours. At 48 hours, the assay was terminated by fixation with TCA and determination of relative cell counts by addition of Sulforhodamine B (SRB, see Alley et al., Cancer Research, 48: 589-601, 1988.). Growth percent was determined by comparison of SRB reading of a duplicate plate of cells taken at the time of compound addition to the SRB reading at the termination of the treatment. The following table provides a summary of the percent of growth of each cell line in the panel compared to control (no treatment), as well as the mean delta and range of percent growth compared to control across the panel of cell lines for each treatment condition.

A549/ATCC = assay: NCI-60 cell growth (SRB); assay type: cell-based; details: Non-Small Cell Lung Cancer, 10 μM, 48 hours
Experimental: as §4

CAKI-1 = assay: NCI-60 cell growth (SRB); assay type: cell-based; details: CAKI-1, Renal Cancer; 10 μM, 48 hours
Experimental: as §4

HT29 = assay: NCI-60 cell growth (SRB); assay type: cell-based; details: HT29, Colon Cancer; 10 μM, 48 hours
Experimental: as §4

K-562 = assay: NCI-60 cell growth (SRB); assay type: cell-based; details: K-562, Leukemia; 10 μM, 48 hours
Experimental: as §4

M14 = assay: NCI-60 cell growth (SRB); assay type: cell-based; details: M14, Melanoma; 10 μM, 48 hours
Experimental: as §4

NCI-H322M = assay: NCI-60 cell growth (SRB); assay type: cell-based; details: Non-Small Cell Lung Cancer, 10 μM, 48 hours
Experimental: as §4

NCI/ADR-RES = assay: NCI-60 cell growth (SRB); assay type: cell-based; details: Ovarian Cancer, 10 μM, 48 hours
Experimental: as §4

OVCAR-3 = assay: NCI-60 cell growth (SRB); assay type: cell-based; details: OVCAR-3, Ovarian Cancer; 10 μM, 48 hours
Experimental: as §4

OVCAR-5 = assay: NCI-60 cell growth (SRB); assay type: cell-based; details: OVCAR-5, Ovarian Cancer; 10 μM, 48 hours
Experimental: as §4

PC-3 = assay: NCI-60 cell growth (SRB); assay type: cell-based; details: PC-3, Prostate Cancer; 10 μM, 48 hours
Experimental: as §4

RPMI-8226 = assay: NCI-60 cell growth (SRB); assay type: cell-based; details: RPMI-8226, Leukemia; 10 μM, 48 hours
Experimental: as §4

RXF 393 = assay: NCI-60 cell growth (SRB); assay type: cell-based; details: RXF 393, Renal Cancer; 10 μM, 48 hours
Experimental: as §4

SW-620 = assay: NCI-60 cell growth (SRB); assay type: cell-based; details: SW-620, Colon Cancer; 10 μM, 48 hours
Experimental: as §4

T-47D = assay: NCI-60 cell growth (SRB); assay type: cell-based; details: Breast Cancer, 10 μM, 48 hours
Experimental: as §4

U251 = assay: NCI-60 cell growth (SRB); assay type: cell-based; details: U251, CNS Cancer; 10 μM, 48 hours
Experimental: as §4

UACC-257 = assay: NCI-60 cell growth (SRB); assay type: cell-based; details: UACC-257, Melanoma; 10 μM, 48 hours
Experimental: as §4

UACC-62 = assay: NCI-60 cell growth (SRB); assay type: cell-based; details: UACC-62, Melanoma; 10 μM, 48 hours
Experimental: as §4

[4] = tested on: NCI-60 panel of cancer cell lines; assay: NCI-60 cell growth (SRB), summary across the panel; assay type: cell-based; details: 10 μM, 48 hours; for Growth Percent, Delta: delta across the panel; for Growth Percent, Mean: mean across the panel; for Growth Percent, Range: range across the panel
Experimental: as §4

[5] = 48 hours, 10 μM BRACO-19, 10 μM Compound 1, 7.5 μM Compound 23

Compound | activity at 10 µM [1] | c-Myc expression (qPCR) [2, 5] | expression of other G-quadruplex containing genes (qPCR) [3, 5] | Growth Percent (786-0) | Growth Percent (A549/ATCC) | Growth Percent (CAKI-1) | Growth Percent (HT29) | Growth Percent (K-562) | Growth Percent (M14) | Growth Percent (NCI-H322M) | Growth Percent (NCI/ADR-RES) | Growth Percent (OVCAR-3) | Growth Percent (OVCAR-5) | Growth Percent (PC-3) | Growth Percent (RPMI-8226) | Growth Percent (RXF 393) | Growth Percent (SW-620) | Growth Percent (T-47D) | Growth Percent (U251) | Growth Percent (UACC-257) | further results
Cc1oc2ccc(O)c(CN3CCCCCC3)c2c1C(=O)Nc1ccc(C(F)(F)F)cc1 [Compound 23] | 0.44% | reduced c-Myc expression | minimally affecting expression of other G-quadruplex containing genes | 49.50% | 61.22% | 50.46% | 80.45% | 29.63% | 58.14% | 69.34% | 53.65% | 62.02% | 85.79% | 45.70% | 75.08% | 50.40% | 67.44% | 73.98% | 55.07% | 82.00% | c-Myc expression (qPCR) ([2]; 5 μM, 24 or 48 hours): reduced c-Myc expression; expression of other G-quadruplex containing genes (qPCR) ([3]; 5 μM, 24 or 48 hours): minimally affecting expression of other G-quadruplex containing genes; Growth Percent (UACC-62): 67.27%; Growth Percent, Delta [4]: 67.00%; Growth Percent, Mean [4]: 58.56%; Growth Percent, Range [4]: 94.23%
Cc1ccc(NC(=O)c2c(C)oc3ccc(O)c(CN4CCCCCC4)c23)cc1 [Compound 1] | 50% | reduced c-Myc expression | minimally affecting expression of other G-quadruplex containing genes | 84.68% | 85.87% | 75.13% | 100.25% | 75.93% | 85.90% | 97.51% | 89.34% | 101.03% | 95.63% | 79.90% | 91.38% | 81.36% | 85.97% | 92.74% | 88.66% | 112.11% | MYC expression (nanostring) ([2]; 10 μM, 2 h to 48 h): substantially reduced; MYC expression (qPCR) ([2]; 5, 10 or 12.5 μM, 48 hours): greatly reduced; expression of other G4-associated genes (nanostring) ([3]; 10 μM, 2 h to 48 h): minimally affected; expression of other genes (qPCR) ([3]; 5, 10 or 12.5 μM, 48 hours): minimally affected; Growth Percent (UACC-62): 102.82%; Growth Percent, Delta [4]: 32.50%; Growth Percent, Mean [4]: 88.39%; Growth Percent, Range [4]: 60.47%
